Data: ChEMBL document CHEMBL5352386 (Eur J Med Chem, 2022)
The source made the active and inactive calls. The calls are words filed in the database; no cut-off is given here.

Experiments:
PC-12 = test: Cytotoxicity against rat PC12 cells assessed as survival rate at 100 uM measured after 24 hrs by MTT assay relative to control; conditions: PC-12, 24 h, read-out: Survival
Cholinesterase [1] = molecular target: Cholinesterase (Equus caballus, UniProt P81908); test: Inhibition of equine serum BuChE using butyrylthiocholine iodide as substrate incubated for 10 mins followed by substrate addition by DTNB-reagent based Ellman's colorimetric assay
Chain of Cholinesterase (Equus caballus, UniProt P81908) (P81908 whole entry): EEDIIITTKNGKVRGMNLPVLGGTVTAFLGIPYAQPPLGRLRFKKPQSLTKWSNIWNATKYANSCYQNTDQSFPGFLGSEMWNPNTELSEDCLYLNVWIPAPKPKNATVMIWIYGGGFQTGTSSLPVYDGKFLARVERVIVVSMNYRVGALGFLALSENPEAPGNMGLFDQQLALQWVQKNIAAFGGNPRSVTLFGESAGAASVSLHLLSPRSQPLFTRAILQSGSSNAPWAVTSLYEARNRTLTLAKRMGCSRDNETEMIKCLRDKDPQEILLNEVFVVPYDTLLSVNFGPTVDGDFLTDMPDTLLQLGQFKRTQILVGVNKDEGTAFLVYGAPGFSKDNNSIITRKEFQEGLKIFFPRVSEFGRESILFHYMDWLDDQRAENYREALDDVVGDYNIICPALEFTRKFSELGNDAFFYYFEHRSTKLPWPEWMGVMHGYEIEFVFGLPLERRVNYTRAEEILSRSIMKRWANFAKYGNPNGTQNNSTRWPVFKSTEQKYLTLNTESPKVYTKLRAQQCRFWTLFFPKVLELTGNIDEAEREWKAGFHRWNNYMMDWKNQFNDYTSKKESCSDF

SH-SY5Y [2] = test: Cytotoxicity against human SH-SY5Y cells assessed as inhibition of cell growth measured after 24 hrs by MTT assay; format: functional, cell-based
[3] = Cytotoxicity against mouse BV-2 cells assessed as inhibition of cell growth measured after 24 hrs by MTT assay; format: toxicity, cell-based
L02 [4] = test: Cytotoxicity against human L02 cells assessed as survival rate at 100 uM measured after 24 hrs by MTT assay relative to control; format: functional; conditions: read-out: Survival
Cholinesterase [5] = molecular target: Cholinesterase (Homo sapiens, UniProt P06276); test: Inhibition of human BuChE using butyrylthiocholine iodide as substrate incubated for 10 mins followed by substrate addition by DTNB-reagent based Ellman's colorimetric assay
Chain of Cholinesterase (Homo sapiens, UniProt P06276) (P06276 whole entry): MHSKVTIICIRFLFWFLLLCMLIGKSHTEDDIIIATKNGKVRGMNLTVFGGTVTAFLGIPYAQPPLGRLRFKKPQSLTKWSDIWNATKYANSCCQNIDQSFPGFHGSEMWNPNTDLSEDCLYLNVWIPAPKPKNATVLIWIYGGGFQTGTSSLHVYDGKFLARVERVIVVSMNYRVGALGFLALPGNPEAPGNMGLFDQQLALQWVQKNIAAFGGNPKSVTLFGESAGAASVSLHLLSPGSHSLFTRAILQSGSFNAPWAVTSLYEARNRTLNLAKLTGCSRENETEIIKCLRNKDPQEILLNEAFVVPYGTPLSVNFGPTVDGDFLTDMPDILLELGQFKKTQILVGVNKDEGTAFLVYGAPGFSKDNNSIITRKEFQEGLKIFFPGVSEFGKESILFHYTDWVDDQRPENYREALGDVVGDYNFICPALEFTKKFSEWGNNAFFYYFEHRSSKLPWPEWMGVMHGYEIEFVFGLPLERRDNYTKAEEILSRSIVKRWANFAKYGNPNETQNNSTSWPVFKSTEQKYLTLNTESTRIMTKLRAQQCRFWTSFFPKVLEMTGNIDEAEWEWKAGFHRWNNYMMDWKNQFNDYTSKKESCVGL

[6] = Cytotoxicity against mouse BV-2 cells assessed as survival rate at 100 uM measured after 24 hrs by MTT assay relative to control; format: toxicity, cell-based; conditions: read-out: Survival
SH-SY5Y [7] = test: Cytotoxicity against human SH-SY5Y cells assessed as survival rate at 2.5 uM measured after 24 hrs by MTT assay relative to control; format: functional; conditions: read-out: Survival
L02 [8] = test: Cytotoxicity against human L02 cells assessed as survival rate at 2.5 uM measured after 24 hrs by MTT assay relative to control; format: functional; conditions: read-out: Survival
Mus musculus [9] = test: Neuroprotective activity against Abeta42 induced cognition impairement in AD mouse model assessed as reduction in confusion of escape trajectory at 10 mg/kg, po measured after 14 days; format: functional, organism-based; conditions: time 14.0 day
Mus musculus [10] = test: Neuroprotective activity against Abeta42 induced cognition impairement in AD mouse model assessed as reduction in latency time to platform at 10 mg/kg, po measured after 14 days by Morris water maze analysis; format: functional, organism-based; conditions: time 14.0 day

SMILES	viability at 100 µM (PC-12) [%]	IC50 (Cholinesterase [1]) [nM]	IC50 (SH-SY5Y [2]) [nM]	IC50 at 24 h [3] [nM]	viability at 100 µM (L02 [4]) [%]	IC50 (Cholinesterase [5]) [nM]	viability at 24 h, 100 µM [6] [%]	viability at 2.5 µM (SH-SY5Y [7]) [%]	viability at 2.5 µM (L02 [8]) [%]	Activity (Mus musculus [9])	Activity (Mus musculus [10])
COC(=O)c1cc(NC(=O)Cn2c(-c3nonc3N)nc3ccccc32)cc(C(=O)OC)c1	50.5	1.48	58000	40400	84	222					
N#Cc1cc(Cl)cc(NC(=O)Cn2c(-c3nonc3N)nc3ccccc32)c1	87	2.04				83.9	64.7	24.6	44.5		
COc1cc2c(cc1OC)C(=O)C(CC1CCN(Cc3ccccc3)CC1)C2 (centres undefined)										Active	Active
